Results on five compounds are retold here after patent US20040242896A1, “Azole compounds as anti-fungal agents” (priority 2001, published 2004).

For assay [1], the system named is Candida parapsilosis 22019 (QC). The assay can be described thus: MIC determination (NCCLS M27A), Candida parapsilosis 22019 (QC). Format: cell-based.
A further assay deals with Candida krusei 6258 (QC). Kind of assay: MIC determination (NCCLS M27A), Candida krusei 6258 (QC). Format: cell-based.
Assay [2] has as its system Paecilomyces variotti 22319 QC). The assay can be described thus: MIC determination (NCCLS M38P), Paecilomyces variotti 22319 (QC). Format: cell-based.
A further assay has as its system Candida albicans 1122. Kind of assay: MIC determination (NCCLS M27A), Candida albicans 1122. Format: cell-based.
The next assay relates to Candida albicans Y-01-19. Kind of assay: MIC determination (NCCLS M27A), Candida albicans Y-01-19. Format: cell-based.
Another assay deals with Candida albicans1162. The assay can be described thus: MIC determination (NCCLS M27A), Candida albicans 1162. Format: cell-based.
The next assay has as its system Candida tropicalis 750. The assay can be described thus: MIC determination (NCCLS M27A), Candida tropicalis 750. Format: cell-based.
In a further assay the test system is Candida krusei 766.1. The assay can be described thus: MIC determination (NCCLS M27A), Candida krusei 766.1. Format: cell-based.
The test system of a further assay is Candida glabrata 90030. The assay can be described thus: MIC determination (NCCLS M27A), Candida glabrata 90030. Format: cell-based.
In another assay the test system is Histoplasma capsulatum. Kind of assay: microbe, parasite or virus in culture. Format: cell-based.
The test system of assay [3] is Cryptococcus neoformans I. Kind of assay: MIC determination (NCCLS M27A), Cryptococcus neoformans I. Format: cell-based.
Assay [4] has as its system Cryptococcus neoformans M 106. The assay can be described thus: MIC determination (NCCLS M27A), Cryptococcus neoformans M 106. Format: cell-based.
Assay [5] concerns Aspergillus fumigatus 1008. The assay can be described thus: MIC determination (NCCLS M38P), Aspergillus fumigatus 1008. Format: cell-based.
In assay [6] the test system is Aspergillus fumigatus Si-I. Kind of assay: MIC determination (NCCLS M38P), Aspergillus fumigatus Si-I. Format: cell-based.
Assay [7] concerns isolates of Aspergillus species. The note with it: background statement; cited from earlier work.
Assay [8] addresses lanosterol 14α-de-methylase. The conditions noted are these: the target enzyme in the fungus, background statement; cited from earlier work.
[9] abbreviates: Candida albicans Y-01-19, RPMI 1640, MOPS pH 7.
The mark [10] stands for this setting: Candida albicans1162, RPMI 1640, MOPS pH 7.
Where [11] appears, read: Candida krusei 766.1, RPMI 1640, MOPS pH 7.
Where [12] appears, read: Cryptococcus neoformans M 106, RPMI 1640, MOPS pH 7.
Setting [13] is: Aspergillus fumigatus 1008, RPMI 1640, MOPS pH 7.
Where [14] appears, read: Aspergillus fumigatus Si-I, RPMI 1640, MOPS pH 7.
[15] abbreviates: RPMI 1640, MOPS pH 7, read-out: MIC.
Where [16] appears, read: Pichia kudriavzevii, RPMI 1640, MOPS pH 7, read-out: MIC.
The mark [17] stands for this setting: Nakaseomyces glabratus, RPMI 1640, MOPS pH 7, read-out: MIC.

Converted amounts (≈) assume the structure as drawn. Read-outs that look alike come from different tables or passages of the source.

Turning to `C[C@@H](n1ncn(-c2ccc(OCc3ccc(Cl)cc3Cl)cc2)c1=S)[C@](O)(Cn1cncn1)c1ccc(F)cc1F` [compound 1, 2-[(1R,2R)-2 (2,4-Difluorophenyl)-2-hydroxy-1-methyl-3-(1H-1,2,4-triazol-1-yl)propyl]-4-[4-(2,4-dichlorobenzyloxy)phenyl]-3-(2H, 4H)-1,2,4-thiotriazolone], the MIC in assay [1] (RPMI 1640, MOPS pH 7) is <0.125 µg/mL; against Candida krusei 6258 (QC) (RPMI 1640, MOPS pH 7) it was <0.125 µg/mL; in assay [2] (RPMI 1640, MOPS pH 7), <0.125 µg/mL; in the assay with Candida albicans 1122 (RPMI 1640, MOPS pH 7), <0.125 µg/mL; with Candida albicans Y-01-19 (setting [9]), “≦0.125 μg/ml”; with Candida albicans1162 (setting [10]) it was “≧64 μg/ml”. In addition, the MIC was <0.125 µg/mL against Candida tropicalis 750 (RPMI 1640, MOPS pH 7); 0.5 µg/mL (≈ 0.829 µM) in the assay with Candida krusei 766.1 (setting [11]); 32 µg/mL (≈ 53 µM) against Candida glabrata 90030 (RPMI 1640, MOPS pH 7); 0.5 µg/mL (≈ 0.829 µM) in the assay on Histoplasma capsulatum (RPMI 1640, MOPS pH 7); <0.03 µg/mL in assay [3] (RPMI 1640, MOPS pH 7); <0.03 µg/mL in assay [4] (setting [12]). For the same compound, the MIC in [5] (setting [13]) and in assay [6] (setting [14]) was <0.125 µg/mL in each case.

Regarding `C[C@@H](n1ncn(-c2ccc(OCc3ccccc3)cc2)c1=S)[C@](O)(Cn1cncn1)c1ccc(F)cc1F` [Compound No. 2, 2-[(1R,2R)-2 (2,4-Difluorophenyl)-2-hydroxy-1-methyl-3-(1H-1,2,4-triazol-1-yl)propyl]-4-(4-benzyloxyphenyl)-3-(2H, 4H)-1,2,4-thiotriazolone], the MIC in assay [1] (RPMI 1640, MOPS pH 7) was 0.002 µg/mL (≈ 0.00374 µM); against Candida krusei 6258 (QC) (RPMI 1640, MOPS pH 7), 0.125 µg/mL (≈ 0.234 µM); in [2] (RPMI 1640, MOPS pH 7) it was 0.06 µg/mL (≈ 0.112 µM); against Candida albicans Y-01-19 (setting [9]), 0.03 µg/mL (≈ 0.0561 µM); with Candida tropicalis 750 (RPMI 1640, MOPS pH 7), 0.002 µg/mL (≈ 0.00374 µM); against Candida krusei 766.1 (setting [11]) it was 0.125 µg/mL (≈ 0.234 µM). The MIC with Candida glabrata 90030 (RPMI 1640, MOPS pH 7) turned out to be 0.125 µg/mL (≈ 0.234 µM); in the assay with Histoplasma capsulatum (RPMI 1640, MOPS pH 7) it was 0.03 µg/mL (≈ 0.0561 µM); in [3] (RPMI 1640, MOPS pH 7), 0.00025 µg/mL (≈ 0.000468 µM); in assay [4] (setting [12]), 0.00025 µg/mL (≈ 0.000468 µM); in assay [5] (setting [13]) it was 0.125 µg/mL (≈ 0.234 µM); in [6] (setting [14]) it was 0.016 µg/mL (≈ 0.0299 µM).

Consider `C[C@@H]1[C@H](O)[C@@H](C)/C=C/C=C/C=C/C=C/C=C/C=C/C=C/[C@H](O[C@@H]2O[C@H](C)[C@@H](O)[C@H](N)[C@@H]2O)C[C@@H]2O[C@](O)(C[C@@H](O)C[C@@H](O)[C@H](O)CC[C@@H](O)C[C@@H](O)CC(=O)O[C@H]1C)C[C@H](O)[C@H]2C(=O)O` [Amphotericin B], for which the MIC in assay [1] (RPMI 1640, MOPS pH 7) is 0.25 µg/mL (≈ 0.271 µM); against Candida krusei 6258 (QC) (RPMI 1640, MOPS pH 7) it was 0.25 µg/mL (≈ 0.271 µM); in assay [2] (RPMI 1640, MOPS pH 7), 0.06 µg/mL (≈ 0.0649 µM); against Candida albicans 1122 (RPMI 1640, MOPS pH 7), 0.125 µg/mL (≈ 0.135 µM); against Candida albicans Y-01-19 (setting [9]) it was 0.125 µg/mL (≈ 0.135 µM); in the assay on Candida albicans1162 (setting [10]), 0.06 µg/mL (≈ 0.0649 µM). Also, the MIC with Candida tropicalis 750 (RPMI 1640, MOPS pH 7) was 0.125 µg/mL (≈ 0.135 µM); against Candida krusei 766.1 (setting [11]), 0.25 µg/mL (≈ 0.271 µM); in the assay on Candida glabrata 90030 (RPMI 1640, MOPS pH 7), 0.125 µg/mL (≈ 0.135 µM); in the assay with Histoplasma capsulatum (RPMI 1640, MOPS pH 7), 0.25 µg/mL (≈ 0.271 µM); in assay [3] (RPMI 1640, MOPS pH 7), 0.06 µg/mL (≈ 0.0649 µM); in [4] (setting [12]) it was 0.125 µg/mL (≈ 0.135 µM). The MIC in assay [5] (setting [13]) and in assay [6] (setting [14]) was 0.125 µg/mL (≈ 0.135 µM) in each case.

`CCC(C)n1ncn(-c2ccc(N3CCN(c4ccc(OCC5COC(Cn6cncn6)(c6ccc(Cl)cc6Cl)O5)cc4)CC3)cc2)c1=O` (stereo not shown) [Itraconazole]: the MIC in [1] (setting [15]) was found to be 0.06 µg/mL (≈ 0.085 µM); with Candida krusei 6258 (QC) (setting [16]), 0.5 µg/mL (≈ 0.709 µM); in assay [2] (setting [15]) it was 0.03 µg/mL (≈ 0.0425 µM); in the assay with Candida albicans 1122 (setting [15]), 0.03 µg/mL (≈ 0.0425 µM); in the assay on Candida albicans Y-01-19 (Candida albicans, Y0119, pH 7) it was 0.125 µg/mL (≈ 0.177 µM); in the assay with Candida albicans1162 (Candida albicans1162, RPMI 1640, MOPS pH 7, read-out: MIC) it was 32 µg/mL (≈ 45.3 µM). In addition, the MIC in the assay on Candida tropicalis 750 (setting [15]) is 0.03 µg/mL (≈ 0.0425 µM); with Candida krusei 766.1 (Pichia kudriavzevii, Candida krusei 766.1, RPMI 1640, MOPS pH 7, read-out: MIC), 0.25 µg/mL (≈ 0.354 µM); in the assay on Candida glabrata 90030 (setting [17]) it was 2 µg/mL (≈ 2.83 µM); against Histoplasma capsulatum (pH 7), 0.25 µg/mL (≈ 0.354 µM); in [3] (setting [15]), 0.016 µg/mL (≈ 0.0227 µM); in [4] (Cryptococcus neoformans, M106, pH 7) it was 0.125 µg/mL (≈ 0.177 µM). The MIC in assay [5] (Aspergillus fumigatus 1008, RPMI 1640, MOPS pH 7, read-out: MIC) is 0.25 µg/mL (≈ 0.354 µM); in assay [6] (Aspergillus fumigatus Si-I, RPMI 1640, MOPS pH 7, read-out: MIC), 0.25 µg/mL (≈ 0.354 µM).

As a reminder, the IC50 is the concentration that gives 50% inhibition. As for `OC(Cn1cncn1)(Cn1cncn1)c1ccc(F)cc1F` [Fluconazole], the MIC is 2 µg/mL (≈ 6.53 µM) in [1] (setting [15]); 32 µg/mL (≈ 104 µM) in the assay with Candida krusei 6258 (QC) (setting [16]); 2 µg/mL (≈ 6.53 µM) in [2] (setting [15]); 0.5 µg/mL (≈ 1.63 µM) in the assay on Candida albicans 1122 (setting [15]); 8 µg/mL (≈ 26.1 µM) in the assay with Candida albicans Y-01-19 (Y0119, Candida albicans Y-01-19, RPMI 1640, MOPS pH 7, read-out: MIC); > 128 µg/mL in the assay on Candida albicans1162 (Candida, ALBICANS1162, pH 7). Further, the MIC in the assay on Candida tropicalis 750 (setting [15]) was determined as 0.25 µg/mL (≈ 0.816 µM); against Candida krusei 766.1 (Pichia kudriavzevii, 766.1, pH 7), 128 µg/mL (≈ 418 µM); with Candida glabrata 90030 (setting [17]) it was 64 µg/mL (≈ 209 µM); in the assay with Histoplasma capsulatum (pH 7) it was 2 µg/mL (≈ 6.53 µM); in assay [3] (setting [15]), 0.5 µg/mL (≈ 1.63 µM); in assay [4] (M106, Cryptococcus neoformans M 106, RPMI 1640, MOPS pH 7, read-out: MIC), 2 µg/mL (≈ 6.53 µM). In addition, the MIC is > 128 µg/mL in [5] (Aspergillus fumigatus, 1008, pH 7) and > 128 µg/mL in [6] (Aspergillus fumigatus, pH 7). Moreover, the “minimum inhibitory concentration (MIC) values” in [7] was 400 µg/mL (≈ 1310 µM). The IC50 in assay [8] is 4.8 µM.
